Values quoted from earlier work, collected in patent US9259452B2, “Deacetylase inhibitor therapy” (Celgene Corporation, priority 2006, dated 2016).
Like-named read-outs stand apart in the source and are kept apart here.

Conditions: cited from earlier work; for ECG effects reported: clinical trials

SMILES: O=C(/C=C/c1ccc(CN(CCO)CCc2cc3ccccc3[nH]2)cc1)NO [LAQ824]
- Change in QTc interval (77 patients treated): statistically significant increase
- ECG effects reported: non-specific T-wave or ST segment abnormalities
- Patients having QTc prolongation of greater than 60 ms (of 77 patients treated): 10%
- Event in one patient with QTc greater than 500 ms (when re-treated at a lower dose level): torsades de pointes

SMILES: Cc1[nH]c2ccccc2c1CCNCc1ccc(/C=C/C(=O)NO)cc1 [LBH589]
- Patients with QTc prolongation of greater than 500 ms (12 patients treated at higher dose levels): 42%
- Patients with QTc prolongation of greater than 500 ms (of 12 patients treated at higher dose levels): 5

SMILES: O=C(/C=C/c1cccc(S(=O)(=O)Nc2ccccc2)c1)NO [PXD101]
- Supraventricular tachycardia reported (phase I trials): dose limiting toxicity

SMILES: O=C(CCCCCCC(=O)Nc1ccccc1)NO [SAHA, Suberoylanilide Hydroxamic Acid]
- ECG effects reported: non-specific T-wave or ST segment abnormalities
